Values quoted from earlier work in patent publication US11634860B2, “Articles and methods for dispensing metal ions into laundry systems” (Applied Silver, Inc., priority 2016, dated 2023).

Conditions: silver salt formed with the binder's counterion

[Ag+].[Ag+].[S-2] [Ag2S]
Solubility Limit: 6.21E−16 g/100 mL

[Cl][Ag] [AgCl]
Solubility Limit: 1.60E−04 g/100 mL

[Ag+].[F-] [AgF]
Solubility Limit: 100 g/100 mL
